According to patent US8791126B2, “2-alkynyl-N9-propargyladenine and medicinal use thereof” (Yamasa Corporation, priority 2010, dated 2014):

What was measured:
[1] = Photostability study in solid state; type: physicochemical; conditions: under a fluorescent light for 3 weeks, HPLC
Experimental: Of the compounds of the present invention, the formula (4) compound, the formula (10) compound, and the formula (11) compound were evaluated for their photostability in solid state.
The study was conducted in accordance with “Guideline for the Photostability Testing of New Drug Substances and Products.” That is, each compound in solid state was placed under a fluorescent light statically for 3 weeks, and the residual ratio was calculated from the HPLC analysis results before and after the placement.

[2] = system: haloperidol-induced catalepsy; experiment: Haloperidol-induced catalepsy; type: in vivo; conditions: male ddY mice, haloperidol 1 mg/kg i.p., compound oral 0.03-10 mg/kg 1 hour later, scored 1, 3, 5, 7 hours; FIGS. 2-4
Experimental: Haloperidol is known to block dopamine receptors. This method is used generally as a method of evaluating the therapeutic effect of the therapeutic agents for Parkinson's syndrome, by using the effect of inducing catalepsy (when being made to take a certain posture or position of the limbs extrinsically, continuing to keep the posture as it is without willing to change it by oneself) caused by administration of haloperidol. The experiment was conducted by using 7 male ddY mice, 5-weeks old, per group. Haloperidol was suspended in 0.5% CMC, and then administered intraperitoneally to the mice at 1 mg/kg. In the study, as a test compound, the compounds each represented by the formula (4), the formula (5), the formula (10), the formula (11), the formula (12), the formula (13), or the formula (14) in the above synthesis examples were used, and as a positive control, KW-6002 (the test compound and KW-6002 were 0.03, 0.1, 0.3, 1, 3, 10 mg/kg) or L-DOPA (100 mg/kg)+benserazide (25 mg/kg) was used. The above 4 compounds were each suspended in 0.5% CMC, and orally administered to the mice 1 hour after the haloperidol administration. In addition, the case where only CMC was administered was designated as a control for the whole. After a lapse of 1, 3, 5, and 7 hours from the administration of the test compound, both forelimbs only, or both hindlimbs only, of a mouse were put in turn on an acrylic stand, height 4.5 cm, width 1.0 cm, and catalepsy was determined, and the state was scored as Table 2 below. [table]

[3] = biological target: human adenosine A2a receptor (Homo sapiens, UniProt P29274); experiment: Binding assay to human adenosine A2a receptor
Experimental: In order to clarify the binding affinity of the compound of the present invention to a human adenosine A2a receptor, a binding assay for the human receptor and the compound of the present invention was conducted.

[4] = system: 6-OHDA-induced unilaterally substantia nigra lesioned rats; experiment: 6-OHDA-induced unilaterally substantia nigra lesioned rats, contralateral rotation; type: in vivo, rat; conditions: oral, administered singly, observed 5 hours, versus KW-6002; FIGS. 5-7
Experimental: 6-Hydroxydopamine (6-OHDA) is taken into neurons by dopamine reuptake transporters and acts as a neurotoxin, and is used for the selective denaturation and removal of dopaminergic neurons. This 6-OHDA was locally administered to the corpus striatum to induce the cell death of dopaminergic nerve and reduce dopamine, and thereby induce the symptoms of Parkinson's syndrome. In the study, 6-OHDA was injected into the right ventral tegmental area of male SD rats, 8-weeks old, and after 4 weeks, apomorphine (5 mg/kg, s.c.) was administered, and the animals which had shown a certain count of the counterclockwise rotation were selected. Using the model rats, the evaluation of the test compound as a therapeutic agent for Parkinson's syndrome was commenced.
Male SD rats, 8-weeks old, were anesthetized with pentobarbital (50 mg/kg), and the hairs were removed broadly from the occiput through the back of the neck, and then an ear bar was attached thereto, and the rats were fixed in a brain stereotaxic apparatus. The skin of the head was incised 3 to 4 cm with a scalpel, the periosteum was stripped off to expose the skull and the suture was checked. […] 4 weeks after the 6-OHDA administration, apomorphine (5 mg/kg, s.c.) was administered, and the count of the counterclockwise rotation for 5 minutes was counted from 5 minutes after the administration. […]

adenosine A2a receptor = biological target: T1, adenosine A2a receptor (Rattus norvegicus, UniProt P30543); experiment: Adenosine A2a receptor antagonist activity by the Magnus method (excised femoral vein); type: cell-based; conditions: femoral vein of male Wistar rats, contracted with 10^−5 M serotonin, relaxed with 10^−7 M 2-octynyladenosine; FIG. 1
T1 construct: the femoral vein was excised from male Wistar rats; from tissue; host or cells: femoral vein of male Wistar rats
Experimental: In order to clarify the adenosine A2a receptor antagonist activity of the compound of the present invention, an evaluation by the Magnus method was conducted. The Magnus method is a method of evaluating the action of drugs using muscle contraction/relaxation as an index, and is used generally as a method for determining the antagonist activity.
In the evaluation, firstly, the femoral vein was excised from male Wistar rats. A Krebs-Henseleit solution aerated with O2 gas was filled in an organ bath and kept at 37° C., and the excised femoral vein was suspended therein under 0.5 g of resting tension. The contractile and relaxing response was determined via a pickup transducer.
In order to check the reactivity of the compound, firstly, the test compound was added dropwise in the organ bath. 10 minutes after the dropwise addition, serotonin was added dropwise in the organ bath such that the concentration thereof was 10^−5 M, to make the femoral vein contract. In a state where the contractile response was stable, 10^−7 M of an adenosine A2a receptor agonist, 2-octynyladenosine was administered to induce the relaxing response, and the inhibitory effect of the compound of the present invention and a positive control on the relaxing response was evaluated. Note that, in the representation of the results, the degree of the contraction at the time of addition of each substance was calculated, on condition that the degree of the relaxation when the compound of the present invention and the positive control were not added dropwise at all was designated as a control for the whole, and the degree of the relaxation for the control for the whole was set to be 100%.
As a compound of the present invention, the formula (3) compound, the formula (4) compound, the formula (5) compound, the formula (9) compound, and the formula (10) compound, which were described in the synthesis examples, were used. Note that the formula (9) compound is a publicly-known compound which has already been described in Patent Literature 2. In addition, as a positive control, 8-[(E)-2-(3,4-dimethoxyphenyl)vinyl]-1,3-diethyl-7-methyl-3,7-dihydro-1H-purin-2,6-dione (KW-6002) described in Patent Literature 1, which is an adenosine A2a receptor antagonist which has conventionally been deemed to have an effect on the treatment of Parkinson's syndrome, and the compound of the following formula (hereinafter referred to as “AT-compound”), which is shown in Patent Literature 3, compound No. 9 in [Table A], were used.

T1 sequence (P30543 whole entry): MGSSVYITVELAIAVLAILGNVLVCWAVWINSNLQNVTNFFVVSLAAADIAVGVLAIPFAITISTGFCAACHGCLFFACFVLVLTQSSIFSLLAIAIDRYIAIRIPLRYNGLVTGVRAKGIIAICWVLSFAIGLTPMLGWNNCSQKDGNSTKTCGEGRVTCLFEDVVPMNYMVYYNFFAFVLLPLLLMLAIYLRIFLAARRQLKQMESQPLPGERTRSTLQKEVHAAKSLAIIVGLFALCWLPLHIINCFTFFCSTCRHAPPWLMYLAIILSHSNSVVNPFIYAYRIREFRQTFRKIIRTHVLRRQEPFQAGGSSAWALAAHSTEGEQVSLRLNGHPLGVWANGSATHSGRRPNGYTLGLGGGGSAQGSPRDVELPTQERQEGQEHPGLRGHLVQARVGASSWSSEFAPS
human adenosine A2a receptor, sequence (P29274 whole entry): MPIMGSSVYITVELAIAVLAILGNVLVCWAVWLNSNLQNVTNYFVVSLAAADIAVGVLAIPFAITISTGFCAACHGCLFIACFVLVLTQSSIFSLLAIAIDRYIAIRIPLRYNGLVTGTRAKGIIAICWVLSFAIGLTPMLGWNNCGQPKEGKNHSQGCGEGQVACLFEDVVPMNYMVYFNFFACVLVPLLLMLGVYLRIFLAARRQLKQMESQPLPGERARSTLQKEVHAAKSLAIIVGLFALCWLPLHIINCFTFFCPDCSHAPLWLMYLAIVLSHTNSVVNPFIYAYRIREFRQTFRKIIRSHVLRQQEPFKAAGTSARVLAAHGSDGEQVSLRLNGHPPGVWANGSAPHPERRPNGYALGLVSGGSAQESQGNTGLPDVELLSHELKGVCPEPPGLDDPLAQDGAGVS

| SMILES | residual ratio [1] [%] | Ki [3] [pM] | inhibition of the relaxing response of the femoral vein (adenosine A2a receptor antagonist activity) (adenosine A2a receptor) | score of catalepsy (improving effect on haloperidol-induced catalepsy) [2] | count of the contralateral rotation [4] |
| --- | --- | --- | --- | --- | --- |
| C#CCn1c(-n2nccn2)nc2c(N)nc(C#CCCCCCC)nc21 [formula (14) compound, 8-(1,2,3-triazol-2-yl)-2-(1-octynyl)-N^9-propargyladenine] | – | – | – | exhibit an effect for a long time, with a smaller dose than that of the positive control KW-6002 | – |
| C#CCn1c(Cl)nc2c(N)nc(C#CCCCCCC)nc21 [formula (12) compound, 8-chloro-2-(1-octynyl)-N^9-propargyladenine] | – | – | – | exhibit an effect for a long time, with a smaller dose than that of the positive control KW-6002 | – |
| C#CCn1c(Cl)nc2c(N)nc(C#CC3(O)CCCCC3)nc21 [formula (13) compound, 8-chloro-2-[2-(1-hydroxycyclohexyl)-1-ethyn-1-yl]-N^9-propargyladenine] | – | – | – | exhibit an effect for a long time, with a smaller dose than that of the positive control KW-6002 | – |
| C#CCn1cnc2c(N)nc(C#CCC3CCN(C(=O)Oc4ccc(C(=O)OC)cc4)CC3)nc21 [AT-compound, reference compound] | – | – | no potent activity | – | – |

The next lines start with results.

| residual ratio [1] [%] | Ki [3] [pM] | inhibition of the relaxing response of the femoral vein (adenosine A2a receptor antagonist activity) (adenosine A2a receptor) | SMILES | score of catalepsy (improving effect on haloperidol-induced catalepsy) [2] | count of the contralateral rotation [4] |
| --- | --- | --- | --- | --- | --- |
| 99.0 | 581 | more potent activity | C#CCn1c(Br)nc2c(N)nc(C#CCCCCCC)nc21 [formula (4) compound, 8-bromo-2-(1-octyn-1-yl)-N^9-propargyladenine] | kept the score of catalepsy low, with a smaller dose than that of KW-6002 | exhibit an effect which is stronger and continuously increase the count of the contralateral rotation |
| – | – | more potent activity | C#CCn1c(-c2ccco2)nc2c(N)nc(C#CCCCCCC)nc21 [formula (5) compound, 8-(2-furyl)-2-(1-octyn-1-yl)-N^9-propargyl-adenine] | the catalepsy score was also kept low compared with that of L-DOPA or the formula (4) compound | – |
| 98.8 | – | more potent activity | C#CCn1c(Br)nc2c(N)nc(C#CC3(O)CCCCC3)nc21 [formula (10) compound, 8-bromo-2-[2-(1-hydroxycyclohexyl)-1-ethyn-1-yl]-N^9-propargyladenine] | kept the score of catalepsy low, with a smaller dose than that of KW-6002 | exhibit an effect which is stronger and continuously increase the count of the contralateral rotation |
| 100.2 | – | – | C#CCn1c(-c2ccco2)nc2c(N)nc(C#CC3(O)CCCCC3)nc21 [formula (11) compound, 8-(2-furyl)-2-[2-(1-hydroxycyclohexyl)-1-ethyn-1-yl]-N^9-propargyladenine] | exhibit an effect for a long time, with a smaller dose than that of the positive control KW-6002 | – |
